experiment: Human HepG2 cell viability assay in 384 well format; format: toxicity, cell-based; parameters: dose 125 nL, time 70.5 hour; concentration not given beside the values; details: HepG2 cells, read-out: Inhibition

Row | Structure (SMILES) | cytotoxicity at 70.5 h [%]
1 | O=C(NCc1cc2n(n1)CCCN(Cc1ccc(Cl)s1)C2)C1CCC1 | -10.1
2 | Cc1ccc(NC(=O)CSCc2cccnc2)nc1 | -1.37
3 | CNc1nccnc1C1CN(Cc2ccc3[nH]ccc3c2)CCO1 (configuration not stated) | -2.11
4 | COCCC1COC2(CCN(C(=O)c3ccncc3)CC2)C1 (configuration not stated) | 30.8
5 | CCCN(C(=O)CNC1CCc2ncnn2C1)C1=CCCCC1 (configuration not stated) | -10.9
6 | CCOc1ccc2[nH]c(=O)c(CN3CCC(N4CCCC4)CC3)cc2c1 | -4.41
7 | CN(Cc1cc(-c2ccccc2)no1)C(=O)CNS(C)(=O)=O | 23.3
8 | CC(=O)c1cn(CCC(=O)NCCC(=O)O)c2ccccc12 | -12.4
9 | OCCN1CCN(CC(O)c2cc(Cl)ccc2Cl)CC1 (configuration not stated) | -3.64
10 | CCn1nc(CC(C)C)cc1C(=O)NCCn1cccc1 | -2.38
11 | O=C(CC1C=CCC1)Nc1ncn(CC(=O)N2CCCCCC2)n1 (configuration not stated) | -13.4
12 | FC(F)(F)c1cc(C2CCCN(c3ncccn3)C2)n2ccnc2n1 (configuration not stated) | -2.5
13 | O=C(CCn1ncc2c(Cl)cccc21)NCC1CC1 | -5.33
14 | CN1CCCC(c2cncc(-c3cccc(C(F)(F)F)c3)n2)C1 (configuration not stated) | -8.63
15 | CCC(C)(C)NC(=O)CN(C)C(c1cccc(F)c1)c1ccccn1 (configuration not stated) | 0.639
16 | Cc1noc(C)c1CN1CCCCC1c1nc(-c2ccccc2)no1 (configuration not stated) | -9.69
17 | CCCc1nnc2sc(C3CCN(C4CCN(C)CC4)CC3)nn12 | -12.7
18 | O=C(NCc1ccc(F)cc1)NCC1(N2CCOCC2)CCSC1 (configuration not stated) | 7.3
19 | O=C(NCC1CCCO1)c1cc(-c2ccncc2)c2cnccc2n1 (configuration not stated) | -8.71
20 | N#Cc1ccccc1C(=O)Nc1cccc(CN2CCC(CO)CC2)c1 | -5.53
21 | CCn1cc(C(=O)NCC2(C(N)=O)CCOCC2)c2ccccc21 | 0.306

Row | Structure (SMILES) | cytotoxicity at 70.5 h [%]
22 | Cc1csc(CN(C)CCOc2ccccc2)n1 | 20.8
23 | Cc1cc(C(=O)N(C)Cc2ccoc2)c(NC(=O)C(C)(C)C)s1 | -3.77
24 | Cc1nn(C)c(N2CCCN(C)CC2)c1CNC(=O)CC(C)(C)C | 3.8
25 | O=C(NCCCn1cncn1)N1CCCCCC1 | 1.12
26 | CCOCC1CN(Cc2ccoc2)Cc2nn(C)cc21 (configuration not stated) | -4.9
27 | CN(C)CCO[C@H]1CN(Cc2cccc(C#N)c2)[C@@H]2COC[C@H]12 | -1.49
28 | CC(=O)N(Cc1ncc(C(C)C)o1)C1CCN(Cc2ncc[nH]2)C1 (configuration not stated) | 0.135
29 | Cc1cc(N(C)Cc2c(C)noc2C)n2nc(C)c(C)c2n1 | 3.35
30 | COC(=O)c1ccc(NC(=O)CCc2ccncc2)c(C)c1 | -11.9
31 | CC(C)c1nccc(CN2CCC(c3nc4ccccc4n3C)CC2)n1 | -20.5
32 | Cc1nc(CN2C(=O)COC3(CCN(CC4CC4)CC3)C2C)cs1 (configuration not stated) | 2.37
33 | OCC1(Cc2ccc(Cl)cc2)CCN(Cc2ccccc2O)CC1 | -4.64
34 | Cn1nc(Cn2cccn2)c2c1CN(C1CCOC1)C2 (configuration not stated) | -6.25
35 | Cc1nc2c(Nc3ccc(C#N)cc3)nc(N)nc2n1C | -1.73
36 | O=C1CC(c2ccc(F)cc2)c2cnn(C3CCCC3)c2N1 (configuration not stated) | -7.98
37 | COc1cc(C)c(C(C)NC(=O)c2cccnc2N(C)C)cc1OC (configuration not stated) | -6.36
38 | Cn1ccnc1-c1ccc(NCC2COc3ccccc3O2)nn1 (configuration not stated) | 1.13
39 | Cc1cnn(CC2CCCN2CCCS(=O)(=O)N(C)C)c1 (configuration not stated) | 2.72
40 | Cc1cc(CN2C[C@@H]3COC[C@]3(COCc3csc(C)n3)C2)no1 | 2.9
41 | CCn1cc(NC(=O)NCC(C)O)cn1 (configuration not stated) | -1.8
42 | O=C(c1cccnc1)N1C[C@@H]2CN(CCN3CCCC3)C(=O)[C@@H]2C1 | -6.24

Row | Structure (SMILES) | cytotoxicity at 70.5 h [%]
43 | CN(C)Cc1cnc(C2CCN(C(=O)c3cccc(Cl)c3)C2)[nH]1 (configuration not stated) | -3.59
44 | CN(Cc1ccccc1)CC1CC2(CO1)CN(c1nncs1)C2 (configuration not stated) | -8.78
45 | CC(C)Cc1noc(CN2CCN(C(=O)c3cccc(F)c3)CC2)n1 | -3.6
46 | CCc1cnc(N)nc1N1CCN(C(C)=O)CC1 | -15.8
47 | NS(=O)(=O)CCN1CCN(c2ccccc2O)CC1 | -0.407
48 | Cc1nccc([C@H]2C[C@@H]3CCN(S(C)(=O)=O)C[C@H]3O2)n1 | -0.795
49 | CC(C)COC[C@H]1CC[C@H]2[C@H](CCN2C(=O)c2ccncc2F)O1 | -0.218
50 | O=C(O)[C@@H]1CN(C(=O)CSCC2CC2)C[C@H]1c1ccccn1 | -1.99
51 | CS(=O)(=O)c1ccc(Cl)c(NC(=O)NCCC2=CCCCC2)c1 | -8.84
52 | Cc1cnn(CC2CN(CC(=O)Nc3sccc3C#N)CCO2)c1 (configuration not stated) | -0.129
53 | Cc1ccc(-c2ncc(CN3CCN(C(=O)N(C)C)CC3)s2)o1 | -7.74
54 | NC(=O)CN1CCCC(C(=O)N2CCC(Oc3ncccn3)CC2)C1 (configuration not stated) | -2.67
55 | CC(C)(Oc1ccc(C(N)=O)cc1)C(=O)N(CCC#N)C1CC1 | -1.36
56 | CNC(=O)COc1ccc(CNCc2cc(F)ccc2F)cc1 | -2.81
57 | Cn1cccc1C(=O)N1CCC2(CCCN(CC3CCC3)C2=O)C1 (configuration not stated) | -2.25
58 | COc1ccc(C)cc1CC(=O)NC1(C#N)CCOCC1 | 29.1
59 | COc1ccc(CN(C)[C@@H]2CN(C(=O)c3cnn(C)c3)C[C@H]2O)cc1 | -6.51
60 | CC(C)C1CCN(C(=O)NCC(=O)N(C)CC(F)(F)F)CC1 | 20.8
61 | COc1cc(CO)ccc1OCc1nc(C(C)C)no1 | -3.56
62 | CN(C)C(=O)NC1COC2(CCN(Cc3ccc(N(C)C)cc3)CC2)C1 (configuration not stated) | -2.99
63 | COc1ccc(OC)c(-c2csc(-c3cccc(C(=O)O)c3)n2)c1 | -16.7

Row | Structure (SMILES) | cytotoxicity at 70.5 h [%]
64 | FC(F)CN1CCC(NCc2ccc(-n3cccn3)nc2)CC1 | -9.95
65 | CC(C)(C)CN1CC(O)CN(C(=O)c2cccc(C(F)(F)F)c2)CC1=O (configuration not stated) | -7.28
66 | Cc1cnc(CNC(=O)N(CCCO)C2CCc3ccccc32)s1 (configuration not stated) | 0.605
67 | Cc1ccc(-c2nc(CNc3ccc(C(N)=O)c(C)c3)cs2)o1 | -8.76
68 | Cc1n[nH]c(C2CN(CC(=O)NCCc3ccsc3)CCO2)n1 (configuration not stated) | -1.23
69 | COc1ccc(CNCC(C)Oc2ccccn2)cc1Br (configuration not stated) | -18.5
70 | CCOc1ccc(NC(C)C(=O)NCCc2cccs2)cc1CO (configuration not stated) | -3.5
71 | O=C1COC2(CCN(c3ccccn3)CC2)CN1Cc1ccccn1 | 17.6
72 | CN(Cc1cc(-c2cccnc2)no1)C(=O)C1CCCN1S(C)(=O)=O (configuration not stated) | -8.25
73 | CCC1CN(C(=O)c2cnc(-c3cnn(C)c3)s2)CCO1 (configuration not stated) | -6.34
74 | CC(=O)N1CCC(c2nccnc2Nc2cnccn2)CC1 | -10.2
75 | CN(C)c1nc(CNC(=O)NC2COc3ccccc32)cs1 (configuration not stated) | 2.4
76 | COCCOCC1CCN(C(=O)c2ccc3[nH]cnc3c2)C1 (configuration not stated) | 2.45
77 | O=C(C1CCCN(Cc2ccccc2)C1)N1CCc2sccc2C1 (configuration not stated) | 31
78 | Cc1cccc(C(=O)NCc2ccnc(N(C)C)c2)n1 | 0.0987
79 | Cc1nc(C)n(CC2CCCN2CCCOc2ccc(F)cc2)n1 (configuration not stated) | 6.79
80 | Cn1ncnc1-c1ccnc(NCc2ccncc2)n1 | -13.8
81 | Cc1nc2cc(C(=O)N(CCN(C)C)CCN(C)C)ccc2n1C | -7.57
82 | Cc1cc(C(=O)N2CCN(c3ccncc3Cl)CC2)n(C)n1 | -1.44
